Reference: US12559789B2, “Method of targeting patient-specific oncogenes in extrachromosomal DNA to treat glioblastoma” (The Jackson Laboratory, priority 2017, dated 2026)
“Also recorded” adds a separate entry of the source.

Assays:
Type in all cases: in vivo, mouse
HF3077 PDX = assay: Survival of orthotopic HF3077 PDX mice treated with capmatinib (Kaplan-Meier, log-rank); conditions: single agent, 30 mg/kg daily oral doses, log-rank test, significance P<0.05
Description: Orthotopic xenografts: Following IACUC guidelines in an institutionally approved animal use protocol, the inventors implanted the GBM neurosphere cell suspensions into 8-week old female nude mice (NCRNU, Taconic Farms) (i.e. immunodeficient mice) using the protocol described in Berezovsky, A. D. et al. SOX2 promotes malignancy in glioblastoma by regulating plasticity and astrocytic differentiation, Neoplasia 16, 193-206 e25 (2014), which is incorporated herein by reference. It should be noted that other “nude” or “immunodeficient” mice may be used in the present invention, as would be apparent to those skilled in the art. Thus, the present invention is not limited to the specific nude mice used in this experiment. […] Animals were monitored daily by an observer blinded to the group allocation and sacrificed upon first signs of neurological deficit or weight loss greater than 20%. […]
The inventors treated HF3077 PDXs with capmatinib (purchased from Matrix Scientific Products (Columbia, SC)) suspensions in 0.5% methylcellulose/0.1% Tween 80 were prepared every week and administered by oral gavage using a 20 g×1.5″ gavage needle (Cadence) at a dose of 30 mg/kg once a day (5 days/week) until the end of the study. […] Animals were monitored daily and sacrificed upon first signs of neurological deficit or weight loss greater than 20%. […]

HF3035 PDX = assay: Survival of HF3035 PDX mice treated with capmatinib (Kaplan-Meier, log-rank); conditions: single agent, 30 mg/kg daily oral doses, log-rank test
[1] = LC-MS/MS quantitation of capmatinib in plasma and tumor tissue of HF3077 PDX (brain penetrance); conditions: 2 h after the last 30 mg/kg oral dose
Method: To evaluate brain penetrance of capmatinib, the inventors drew blood samples two hours after administration of the last capmatinib 30 mg/kg dose, sacrificed the animals, harvested brains, and froze 2 mm coronal sections in OCT. The inventors dissected tumor tissue from the frozen blocks. The inventors determined capmatinib concentration in homogenized tumor tissue and plasma for three treated animals and one control was quantified by LC-MS/MS. For mouse plasma sample analysis, the inventors precipitated 25 μL of each sample with 200 μL of acetonitrile. This suspension was vortexed for 30 min and centrifuged at 4k rpm for 15 min, after which 100 μL of the extract was aliquoted and mixed with 200 μL of acetonitrile/water (1/2, v/v) prior to LC-MS/MS analysis. The extracted plasma samples were analyzed on a Waters Acquity UPLC system coupled with a Waters Xevo TQ-S triple quadrupole mass spectrometer operated at positive mode. The capillary voltage was set to 0.5 kv and collision energy to 32 eV. […] The mobile phase A was 0.1% acetic acid/water and B was 0.1% acetic acid/acetonitrile. The LC gradient was 10% B (0-0.3 min), 10-95% B (0.3-1.3 min), 95% B (1.3-1.7 min), 10% B (1.7-2.0 min) and the flow rate was 0.5 mL/min. The column temperature was 40° C. The injection volume was 2 μL. […] The tissue homogenates were analyzed by using the same method as described above.

For `CNC(=O)c1ccc(-c2cnc3ncc(Cc4ccc5ncccc5c4)n3n2)cc1F` [capmatinib, Capmatinib], the “survival of HF3077 PDX” value (HF3077 PDX) was “significant survival benefit; also recorded: increases survival of HF3077 PDX”, the “survival of HF3035 PDX” value (HF3035 PDX) was “did not increase survival” and the “concentration of drug in the brain tumor” value [1] was “relatively low concentration”.
